Test results: US12139520B2 (priority 2020, dated 2024)
Numbered stars: 1 amine (or outer) side, 2 acyl side, 3 side chain; on linkers, the order of the positions; unused ones are H or OH. Bridge positions count the residues as written; N and C are the ends. Square brackets hold non-standard residues; d marks the D form. Peptide text beside a SMILES is read from it. * marks the point of attachment. C20 diacid = O=C(O)CCCCCCCCCCCCCCCCCCC(=O)*; γGlu = O=C(O)[C@H](CCC(=O)[*:2])N[*:1]; Hyp = O=C(O)[C@@H]1C[C@@H](O)CN1

Target: T1, hAMY3 receptor (Homo sapiens, UniProt O60896+P30988)
T1 sequence (P30988 25-474): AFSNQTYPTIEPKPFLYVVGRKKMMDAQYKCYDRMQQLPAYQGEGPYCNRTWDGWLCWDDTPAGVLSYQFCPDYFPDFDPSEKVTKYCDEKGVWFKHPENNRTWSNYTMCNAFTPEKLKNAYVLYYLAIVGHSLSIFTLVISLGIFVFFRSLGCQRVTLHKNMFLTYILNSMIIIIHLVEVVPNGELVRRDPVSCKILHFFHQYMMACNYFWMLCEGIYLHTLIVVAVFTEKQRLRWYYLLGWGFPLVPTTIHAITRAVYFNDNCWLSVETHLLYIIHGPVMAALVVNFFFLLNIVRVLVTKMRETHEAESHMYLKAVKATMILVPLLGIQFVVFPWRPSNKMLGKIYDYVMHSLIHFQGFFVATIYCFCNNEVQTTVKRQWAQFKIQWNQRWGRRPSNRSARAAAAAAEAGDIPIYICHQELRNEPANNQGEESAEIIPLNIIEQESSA
T1 sequence (O60896 24-148 partner): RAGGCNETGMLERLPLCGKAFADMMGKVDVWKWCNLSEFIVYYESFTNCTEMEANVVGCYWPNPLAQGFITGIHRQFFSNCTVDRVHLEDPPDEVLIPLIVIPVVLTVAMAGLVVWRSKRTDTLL
Test: cAMP assay for in vitro receptor activation, hAMY3-R
Type: cell-based
Conditions: cAMP assay, hAMY3 receptor; read-out: hAMY3R EC50
In short: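 Receptor activation was measured as cAMP accumulation in a monoclonal cell line stably overexpressing hAMY3. Stimulation with graded doses lasted 30 min at room temperature in the presence of 0.5 mM IBMX, with human amylin as positive control.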

SMILES | EC50
CC[C@H](C)[C@H](NC(=O)[C@H](CC(N)=O)NC(=O)[C@H](CO)NC(=O)[C@H](CCCNC(=N)N)NC(=O)[C@@H]1CCCN1C(=O)[C@H](C)NC(=O)[C@@H](NC(=O)[C@H](CC(N)=O)NC(=O)[C@H](CC(=O)O)NC(=O)[C@H](CCCCN)NC(=O)[C@H](CC(=O)O)NC(=O)[C@H](CCCCN)NC(=O)[C@H](CC(=O)O)NC(=O)[C@@H](NC(=O)[C@H](Cc1ccccc1)NC(=O)[C@H](CCC(N)=O)NC(=O)[C@H](Cc1ccc(O)cc1)NC(=O)[C@@H](NC(=O)[C@H](CCC(N)=O)NC(=O)[C@H](Cc1c[nH]cn1)NC(=O)[C@H](C)NC(=O)[C@H](CC(C)C)NC(=O)[C@H](CCCNC(=N)N)NC(=O)[C@H](CCC(N)=O)NC(=O)[C@@H](NC(=O)[C@@H](NC(=O)[C@@H]1CSSC[C@H](NC(=O)CN)C(=O)N[C@@H](CCCNC(=N)N)C(=O)N[C@@H](Cc2ccccc2)C(=O)NCC(=O)N[C@@H]([C@@H](C)O)C(=O)N1)[C@@H](C)O)C(C)C)[C@@H](C)CC)[C@@H](C)O)C(C)C)C(=O)NCC(=O)N1CCC[C@H]1C(=O)N[C@@H](CCC(N)=O)C(=O)NCC(=O)N[C@@H](Cc1ccc(O)cc1)C(N)=O [compound 382] (H-GCRFGTCTVQRLAHQIYQFTDKDKDNVAPRSNIGPQGY-NH2; disulfide 2-7) | 0.034 nM
CC(C)C[C@H](NC(=O)[C@H](CCCNC(=N)N)NC(=O)[C@H](CCC(N)=O)NC(=O)[C@@H](NC(=O)[C@@H](NC(=O)[C@@H]1CSSC[C@H](NC(=O)CNC(=O)CC[C@H](NC(=O)CCCCCCCCCCCCCCCCCCC(=O)O)C(=O)O)C(=O)N[C@@H](CCCNC(=N)N)C(=O)N[C@@H](Cc2ccccc2)C(=O)NCC(=O)N[C@@H]([C@@H](C)O)C(=O)N1)[C@@H](C)O)C(C)C)C(=O)N[C@@H](C)C(=O)N[C@@H](Cc1c[nH]cn1)C(=O)N[C@@H](Cc1ccccc1)C(=O)N[C@@H](CC(C)C)C(=O)N[C@@H](Cc1ccc(O)cc1)C(=O)N[C@@H](CCC(N)=O)C(=O)N[C@@H](Cc1ccccc1)C(=O)N[C@H](C(=O)N[C@@H](CC(=O)O)C(=O)N[C@@H](CCCCN)C(=O)N[C@@H](CC(=O)O)C(=O)N[C@@H](CCCCN)C(=O)N[C@@H](CC(=O)O)C(=O)N[C@@H](CC(N)=O)C(=O)N[C@H](C(=O)N[C@@H](C)C(=O)N1CCC[C@H]1C(=O)N[C@@H](CCCNC(=N)N)C(=O)N[C@H](C(=O)N[C@@H](CC(N)=O)C(=O)N[C@H](C(=O)NCC(=O)N1CCC[C@H]1C(=O)N[C@@H](CCC(N)=O)C(=O)NCC(=O)N[C@@H](Cc1ccc(O)cc1)C(N)=O)C(C)C)[C@@H](C)O)C(C)C)[C@@H](C)O [compound 200] ({C20 diacid-γGlu}-GCRFGTCTVQRLAHFLYQFTDKDKDNVAPRTNVGPQGY-NH2; disulfide 2-7) | 0.126 nM
CC[C@H](C)[C@H](NC(=O)[C@H](CC(N)=O)NC(=O)[C@H](CO)NC(=O)[C@H](CCCNC(=N)N)NC(=O)[C@@H]1CCCN1C(=O)[C@H](C)NC(=O)[C@@H](NC(=O)[C@H](CC(N)=O)NC(=O)[C@H](CC(=O)O)NC(=O)[C@H](CCCCN)NC(=O)[C@H](CC(=O)O)NC(=O)[C@H](CCCCN)NC(=O)[C@H](CC(=O)O)NC(=O)[C@@H](NC(=O)[C@H](Cc1ccccc1)NC(=O)[C@H](CCC(N)=O)NC(=O)[C@H](Cc1ccc(O)cc1)NC(=O)[C@@H](NC(=O)[C@H](CCC(N)=O)NC(=O)[C@H](Cc1c[nH]cn1)NC(=O)[C@H](C)NC(=O)[C@H](CC(C)C)NC(=O)[C@H](CCCNC(=N)N)NC(=O)[C@H](CCC(N)=O)NC(=O)[C@@H](NC(=O)[C@@H](NC(=O)[C@@H]1CSSC[C@H](NC(=O)CN)C(=O)N[C@@H](CCCNC(=N)N)C(=O)N[C@@H]([C@@H](C)O)C(=O)NCC(=O)N[C@@H]([C@@H](C)O)C(=O)N1)[C@@H](C)O)C(C)C)[C@@H](C)CC)[C@@H](C)O)C(C)C)C(=O)NCC(=O)N1CCC[C@H]1C(=O)N[C@@H](CC(N)=O)C(=O)NCC(=O)N1C[C@H](O)C[C@H]1C(N)=O [compound 151] (H-GCRTGTCTVQRLAHQIYQFTDKDKDNVAPRSNIGPNG[Hyp]-NH2; disulfide 2-7; N-terminus assumed) | 0.041 nM
CC[C@H](C)[C@H](NC(=O)[C@H](CCC(N)=O)NC(=O)[C@H](Cc1c[nH]cn1)NC(=O)[C@H](C)NC(=O)[C@H](CC(C)C)NC(=O)[C@H](CCCNC(=N)N)NC(=O)[C@H](CCC(N)=O)NC(=O)[C@@H](NC(=O)[C@@H](NC(=O)[C@@H]1CSSC[C@H](NC(=O)CN)C(=O)N[C@@H](CCCNC(=N)N)C(=O)N[C@@H](Cc2ccccc2)C(=O)NCC(=O)N[C@@H]([C@@H](C)O)C(=O)N1)[C@@H](C)O)C(C)C)C(=O)N[C@@H](Cc1ccc(O)cc1)C(=O)N[C@@H](CCC(N)=O)C(=O)N[C@@H](Cc1ccccc1)C(=O)N[C@H](C(=O)N[C@@H](CC(=O)O)C(=O)N[C@@H](CCCCN)C(=O)N[C@@H](CC(=O)O)C(=O)N[C@@H](CCCCN)C(=O)N[C@@H](CC(=O)O)C(=O)N[C@@H](CC(N)=O)C(=O)N[C@H](C(=O)N[C@@H](C)C(=O)N1CCC[C@H]1C(=O)N[C@@H](CCCNC(=N)N)C(=O)N[C@H](C(=O)N[C@@H](CCCCN)C(=O)N[C@H](C(=O)NCC(=O)N1CCC[C@H]1C(=O)N[C@@H](CCC(N)=O)C(=O)NCC(=O)N[C@@H](Cc1ccc(O)cc1)C(N)=O)C(C)C)[C@@H](C)O)C(C)C)[C@@H](C)O [compound 368] (H-GCRFGTCTVQRLAHQIYQFTDKDKDNVAPRTKVGPQGY-NH2; disulfide 2-7; N-terminus assumed) | 0.015 nM
CC[C@H](C)[C@H](NC(=O)[C@H](C)NC(=O)CNC(=O)[C@H](CC(=O)O)NC(=O)[C@H](CCCCN)NC(=O)[C@H](CC(=O)O)NC(=O)[C@@H](NC(=O)[C@H](Cc1ccccc1)NC(=O)[C@H](CCC(N)=O)NC(=O)[C@H](Cc1ccc(O)cc1)NC(=O)[C@H](CC(C)C)NC(=O)[C@H](Cc1ccccc1)NC(=O)[C@H](Cc1c[nH]cn1)NC(=O)[C@H](C)NC(=O)[C@H](CC(C)C)NC(=O)[C@H](CCCNC(=N)N)NC(=O)[C@H](CCC(N)=O)NC(=O)[C@@H](NC(=O)[C@@H](NC(=O)[C@@H]1CSSC[C@H](NC(=O)CN)C(=O)N[C@@H](CCCNC(=N)N)C(=O)N[C@@H](Cc2ccccc2)C(=O)NCC(=O)N[C@@H]([C@@H](C)O)C(=O)N1)[C@@H](C)O)C(C)C)[C@@H](C)O)C(=O)N[C@@H](C)C(=O)N1CCC[C@H]1C(=O)N[C@@H](CCCNC(=N)N)C(=O)N[C@H](C(=O)N[C@@H](CCCCN)C(=O)N[C@H](C(=O)NCC(=O)N[C@@H](CO)C(=O)N[C@@H](CCC(N)=O)C(=O)NCC(=O)N[C@@H](Cc1ccc(O)cc1)C(N)=O)[C@@H](C)CC)[C@@H](C)O [compound 123] (H-GCRFGTCTVQRLAHFLYQFTDKDGAIAPRTKIGSQGY-NH2; disulfide 2-7; N-terminus assumed) | 0.027 nM

Further lines, results first:

EC50 | SMILES
0.015 nM | CC[C@H](C)[C@H](NC(=O)[C@H](CCC(N)=O)NC(=O)[C@H](Cc1c[nH]cn1)NC(=O)[C@H](C)NC(=O)[C@H](CC(C)C)NC(=O)[C@H](CCCNC(=N)N)NC(=O)[C@H](CCC(N)=O)NC(=O)[C@@H](NC(=O)[C@@H](NC(=O)[C@@H]1CSSC[C@H](NC(=O)[C@H](CCCCN)NC(=O)CC[C@H](NC(=O)CCCCCCCCCCCCCCCCCCC(=O)O)C(=O)O)C(=O)N[C@@H](CC(N)=O)C(=O)N[C@@H]([C@@H](C)O)C(=O)N[C@@H](C)C(=O)N[C@@H]([C@@H](C)O)C(=O)N1)[C@@H](C)O)C(C)C)C(=O)N[C@@H](Cc1ccc(O)cc1)C(=O)N[C@@H](CCC(N)=O)C(=O)N[C@@H](Cc1ccccc1)C(=O)N[C@@H](C)C(=O)N[C@@H](CC(=O)O)C(=O)N[C@@H](CCCCN)C(=O)N[C@@H](CC(=O)O)C(=O)N[C@@H](CCCCN)C(=O)N[C@@H](CC(=O)O)C(=O)N[C@@H](CC(N)=O)C(=O)N[C@H](C(=O)N[C@@H](C)C(=O)N1CCC[C@H]1C(=O)N1CCC[C@H]1C(=O)N[C@H](C(=O)N[C@@H](CC(N)=O)C(=O)N[C@H](C(=O)NCC(=O)N[C@@H](CO)C(=O)N[C@@H](CC(N)=O)C(=O)NCC(=O)N1C[C@H](O)C[C@H]1C(N)=O)C(C)C)[C@@H](C)O)C(C)C [compound 83] ({C20 diacid-γGlu}-KCNTATCTVQRLAHQIYQFADKDKDNVAPPTNVGSNG[Hyp]-NH2; disulfide 2-7)
0.009 nM | CC[C@H](C)[C@H](NC(=O)[C@H](CCC(N)=O)NC(=O)[C@H](Cc1c[nH]cn1)NC(=O)[C@H](C)NC(=O)[C@H](CC(C)C)NC(=O)[C@H](CCCNC(=N)N)NC(=O)[C@H](CCC(N)=O)NC(=O)[C@@H](NC(=O)[C@@H](NC(=O)[C@@H]1CSSC[C@H](NC(=O)[C@@H](N)CCCCN)C(=O)N[C@@H](CC(N)=O)C(=O)N[C@@H]([C@@H](C)O)C(=O)N[C@@H](C)C(=O)N[C@@H]([C@@H](C)O)C(=O)N1)[C@@H](C)O)C(C)C)C(=O)N[C@@H](Cc1ccc(O)cc1)C(=O)N[C@@H](CCC(N)=O)C(=O)N[C@@H](Cc1ccccc1)C(=O)N[C@H](C(=O)N[C@@H](CC(=O)O)C(=O)N[C@@H](CCCCN)C(=O)N[C@@H](CC(=O)O)C(=O)N[C@@H](CCCCN)C(=O)N[C@@H](CC(=O)O)C(=O)N[C@@H](CC(N)=O)C(=O)N[C@H](C(=O)N[C@@H](C)C(=O)N1CCC[C@H]1C(=O)N[C@@H](CCCNC(=N)N)C(=O)N[C@H](C(=O)N[C@@H](CCCCN)C(=O)N[C@H](C(=O)NCC(=O)N[C@@H](CO)C(=O)N[C@@H](CC(N)=O)C(=O)NCC(=O)N[C@@H](Cc1ccc(O)cc1)C(N)=O)C(C)C)[C@@H](C)O)C(C)C)[C@@H](C)O [compound 34] (H-KCNTATCTVQRLAHQIYQFTDKDKDNVAPRTKVGSNGY-NH2; disulfide 2-7; N-terminus assumed)
